According to US20060205756A1, “Antitussives” (Kyowa Hakko Kogyo Co., Ltd., priority 2003, published 2006):

Test system: citric acid-induced cough
Test: Citric acid-induced cough model of guinea pig
Type: in vivo
Conditions: for Numbers of the cough reflex by inhalation of citric acid: 1 hour before citric acid inhalation (0.5 mol/L, 2 min), coughs counted during 15 minutes, mean ± standard error; for Suppression of cough reflex as compared with the solvent group: Student's t-test versus solvent-administered group
Text: Antitussive activity is able to be evaluated by suppression of the cough induced by inhalation of a substance such as citric acid, capsaicin, etc. It is also possible to evaluate antitussive activity by suppression of the cough induced by a direct infusion of citric acid or capsaicin into airway [Nippon Yakurigaku Zasshi, volume 120, page 237 (2002)]. It is further possible to evaluate antitussive activity by suppression of the cough by a physical stimulation, for example, contact stimulation of throat or airway [Eur. J. Phazmacol., volume 329, page 93 (1997)].
Evaluation Using the Citric Acid-Induced Cough Model of Guinea Pig
Guinea pigs (Hartley strain; male; six weeks age; Nippon SLC) were used for the test. Induction of cough reflex by citric acid was conducted in a similar manner to the method by Hosoe, et al. [Yakuri to Rinsho, volume 5, page 2147 (1995)]. Thus, the guinea pig was fixed in a double chamber plethysmograph box (manufactured by Buxco Electronics) for guinea pigs and ventilation was conducted at about 1.6 L/minute. A physiological saline containing 0.5 mol/L of citric acid (manufactured by Wako Pure Chemical) was sprayed for 2 minutes from the upper part of the box of the head side using an ultrasonic nebulizer (NE-U12 manufactured by Omron) and discharged from the side drain. The cough reflex was measured by the generated cough sound and the respiration waveform. Numbers of coughs generated during 15 minutes from initiation of inhalation of citric acid were counted. Compound 1, Compound 2 and codeine phosphate (manufactured by Shionogi) each was suspended in 0.5 w/v % methyl cellulose 400 cP (manufactured by Wako Pure Chemical) and orally administered 1 hour before the initiation of the inhalation of citric acid. Incidentally, with regard to the Compound 1 and Compound 2, each 2, mg thereof was suspended in 1 mL of 0.5 w/v % methyl cellulose 400 cP while, with regard to codeine phosphate, 4 mg thereof was suspended in 1 mL of 0.5 w/v % methyl cellulose 400 cP and the suspension was administered at 5 mL per kg body weight. Numbers of the cough reflex by inhalation of citric acid in the group administered with the solvent were 7.9±1.8, while those in the group administered with 10 mg/kg of Compound 1 were 2.0±1.0. In this test, seven guinea pigs were used for the group administered with the solvent and for the group administered with Compound 1, respectively. Numbers of the cough reflex were expressed as the mean value ±standard error. […] Numbers of the cough reflex by inhalation of citric acid in the group administered with 10 mg/kg of Compound 2 were 4.3±1.0, while those in the group administered with the solvent were 10.3±1.8. In this test, twelve guinea pigs were used for the group administered with the solvent and for the group administered with Compound 2, respectively. Numbers of the cough reflex were expressed as the mean value±standard error. […] Numbers of the cough reflex in the group administered with 20 mg/kg of codeine phosphate which is a central antitussive were 1.8±0.5, while those in the group administered with the solvent were 6.8±1.4. In this test, six guinea pigs were used for the group administered with the solvent and for the group administered with codeine phosphate. Numbers of the cough reflex were expressed as the mean value±standard error.

| SMILES | Numbers of the cough reflex by inhalation of citric acid (20 mg/kg oral) | Numbers of the cough reflex by inhalation of citric acid (10 mg/kg oral) | Suppression of cough reflex as compared with the solvent group (10 mg/kg oral) |
| --- | --- | --- | --- |
| COc1ccc2c3c1O[C@H]1[C@@H](O)C=C[C@H]4[C@@H](C2)N(C)CC[C@@]341 [codeine phosphate, reference compound] | 1.8±0.5 |  |  |
| CC(C)(O)C(=O)Nc1cccc2c1C(=O)c1sccc1CS2(=O)=O [Compound 2] |  | 4.3±1.0 | significant suppressive response |
| C[C@](O)(C(=O)Nc1cccc2c1C(=O)c1sccc1CS2(=O)=O)C(F)(F)F [Compound 1] |  | 2.0±1.0 | significant suppressive response |
